“And” between values parts separate entries of the source, which are not always exact repeats. Identical values can stand only once.
Test system: female C57BL/6J mice, lung fibrosis induced by radiation
Test: Radiation induced fibrosis mice model
Format: in vivo
Conditions: individual animals, irradiated lung, CpdA 30 mg/kg QD PO D1-D14
Procedure: Pneumonitis and lung fibrosis are the major radiation-induced complications following thoracic radiotherapy, which is one of the major treatment of lung and breast cancers, lymphomas and hematopoietic transplant conditioning.
The objective of this model is to evaluate the effect of a compound of the invention in lung fibrosis induced by radiation in mice. (Bickelhaupt et al., 2017)
7 weeks old (18/22 gr) female C57BL/6J mice from Charles River (France) are maintained on 12 h light/dark cycle at 22° C. with ad libidum access to tap water and food.
The test compounds are dissolved/suspended in appropriate vehicle prior to using and then kept light-free, under agitation at room temperature.
The dose volume administered is 10 mL/kg and the volume is adapted following mean body weight (BW) of the group as follows: 200 μL if mean BW<22.5 g, 250 μL if mean BW≥22.5 g; 300 μL if mean BW>27.5 g.
On day 1 of week 1, the animals are exposed at the thorax to a 17 Gray irradiation dose, under isoflurane anesthesia. […]
Body weight are recorded once a week, and on Day 14, lung function measurement under anesthesia is realized by Flexivent (Devos et al., 2017) for all groups before sacrifice.
At sacrifice on Day 14, the lungs are collected and fixed in 4% formaldehyde for 24 h before embedding in paraffin. […] The anti-collagen I antibody is detected and amplified by ImmPress kit (Vector Laboratories, Cat. No: MP-7401). The immunostained sections are then scanned (Nanozoomer 2.0HT, Hamamatsu) before quantification by image analysis (CaloPix software, TRIBVN Healthcare). Data are expressed as percentage collagen I area per area of lung tissue.
Values for all mice from the same group are averaged. Data are expressed as mean±sem and are compared with a one-way ANOVA followed by Dunnett multiple comparison post hoc test. […]
Manganese superoxide dismutase (MnSOD), located in mitochondria, catalyzes the conversion of superoxide into H2O2, and is a marker of antioxidant response induced by oxidative stress. MnSOD expression is measured immunohistochemically following a protocol adapted from Inghilleri et al. (Inghilleri et al., 2006).
At sacrifice on Day 14, the lungs are collected and fixed in 4% formaldehyde for 24 h before embedding in paraffin. […] The anti-MnSOD antibody is detected by an anti-rabbit biotinylated antibody (Vector Laboratories, Cat. No: BA-1100) amplified by avidin-biotin peroxidase (Vector Laboratories, Cat. No: PK-6100). […] The immunostained sections counterstained with Gill's hematoxylin are then scanned (Nanozoomer 2.0HT, Hamamatsu) before quantification by image analysis (CaloPix software, TRIBVN Healthcare). Data are expressed as percentage MnSOD stained area per area of lung tissue.

O=c1nc(OC[C@@H]2COCCO2)cc2n1CCc1cc(C#CC3CC3)ccc1-2 [Compound A, 9-Cyclopropylethynyl-2-((S)-1-[1,4]dioxan-2-ylmethoxy)-6,7-dihydro-pyrimido[6,1-a]isoquinolin-4-one]
Type I collagen stained area fraction (Figure 15): 16.2% and 14.7% and 11.0% and 13.0% and 8.7% and 8.1% and 6.5% and 8.9% and 9.1% and 8.6%
MnSOD stained area fraction (Figure 16): 0.31% and 0.74% and 0.39% and 0.57% (3×) and 0.71% and 0.66% and 0.99% and 0.26%

— US20210106582A1, “COMPOUNDS AND PHARMACEUTICAL COMPOSITIONS THEREOF FOR USE IN THE TREATMENT OF FIBROTIC DISEASES” (Galapagos NV, priority 2017, published 2021)
